Reference: ChEMBL document CHEMBL1125588, “Quinazoline antifolate thymidylate synthase inhibitors: bridge modifications and conformationally restricted analogues in the C2-methyl series” (J Med Chem, 1991)

Assays:
L1210 [1] = experiment: Tested for the concentration to inhibit 50% of L1210 cell growth in culture.; assay type: functional, cell-based; conditions: Mus musculus
Thymidylate synthase = Thymidylate synthase (Mus musculus, UniProt P07607); experiment: In vitro inhibition against L1210 thymidylate synthase (TS)
Chain of Thymidylate synthase (P07607 whole entry): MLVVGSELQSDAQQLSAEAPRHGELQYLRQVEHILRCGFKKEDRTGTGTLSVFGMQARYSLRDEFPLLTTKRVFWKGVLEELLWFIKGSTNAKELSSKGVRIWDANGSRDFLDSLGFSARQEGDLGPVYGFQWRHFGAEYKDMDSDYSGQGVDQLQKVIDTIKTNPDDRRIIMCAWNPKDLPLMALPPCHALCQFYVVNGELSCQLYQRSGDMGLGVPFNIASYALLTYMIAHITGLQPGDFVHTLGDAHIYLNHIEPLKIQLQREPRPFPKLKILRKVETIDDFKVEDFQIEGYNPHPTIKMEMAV

L1210 [2] = experiment: Tested for inhibition of L1210 cell growth in presence of dThd and expressed as % of control.; assay type: functional, Mus musculus; parameters: concentration or dose not given beside the values
L1210 [3] = experiment: Compound was tested for the concentration to inhibit 50% of L1210:1565 cell growth.; assay type: functional, cell-based; conditions: Mus musculus
[4] = Ratio of IC50 of L1210:1565 cells to that of IC50 of L1210 cells; assay type: functional

| IC50 (L1210 [1]) [µM] | IC50 (Thymidylate synthase) [µM] | IC50 (L1210 [3]) [µM] | SMILES | Control (L1210 [2]) [%] | Ratio [4] |
| --- | --- | --- | --- | --- | --- |
| 3 | 8.27 | – | Cc1nc(O)c2cc(CNc3ccc4c(c3)CN([C@@H](CCC(=O)O)C(=O)O)C4=O)ccc2n1 | – | – |
| 0.036 | 3.27 | – | Cc1nc(O)c2cc(Cn3ccc4cc(C(=O)N[C@@H](CCC(=O)O)C(=O)O)ccc43)ccc2n1 | 90 | – |
| 0.07 | 8.28 | – | Cc1nc(O)c2cc(NCc3ccc(C(=O)N[C@@H](CCC(=O)O)C(=O)O)cc3)ccc2n1 | 93 | – |
| 0.7 | 2.62 | 7.7 | Cc1nc(O)c2cc(N(C)Cc3ccc(C(=O)N[C@@H](CCC(=O)O)C(=O)O)cc3)ccc2n1 | 93 | 11 |
| > 20 | 10.3 | – | Cc1nc(O)c2cc(Sc3ccc(C(=O)N[C@@H](CCC(=O)O)C(=O)O)cc3)ccc2n1 | – | – |
| 2.4 | – | – | C#CCN(Cc1ccc(C(=O)N[C@@H](CCC(=O)O)C(=O)O)cc1)c1ccc2nc(C)nc(O)c2c1 | 89 | – |
| 0.04 | 21.5 | – | Cc1nc(O)c2cc(COc3ccc(C(=O)N[C@@H](CCC(=O)O)C(=O)O)cc3)ccc2n1 | 75 | – |
| 0.54 | 14.1 | – | C=CCN(Cc1ccc(C(=O)N[C@@H](CCC(=O)O)C(=O)O)s1)c1ccc2nc(C)nc(O)c2c1 | 95 | – |
| 0.38 | 9.9 | – | Cc1nc(O)c2cc(N(CCF)Cc3ccc(C(=O)N[C@@H](CCC(=O)O)C(=O)O)s3)ccc2n1 | 95 | – |
| 0.42 | 4.66 | – | Cc1nc(O)c2cc(CSc3ccc(C(=O)N[C@@H](CCC(=O)O)C(=O)O)cc3)ccc2n1 | 99 | – |
| 0.66 | 8.42 | – | CCN(Cc1ccc(C(=O)N[C@@H](CCC(=O)O)C(=O)O)s1)c1ccc2nc(C)nc(O)c2c1 | 94 | – |
| 0.053 | 6.73 | – | Cc1nc(O)c2cc(NCc3ccc(C(=O)N[C@@H](CCC(=O)O)C(=O)O)cc3F)ccc2n1 | 94 | – |
| – | – | 4.2 | Cc1nc2ccc(CN(C)c3ccc(C(=O)N[C@@H](CCC(=O)O)C(=O)O)cc3)cc2c(=O)[nH]1 | – | 38 |
| 0.3 | 3.82 | 2.1 | Cc1nc(O)c2cc(N(C)Cc3ccc(C(=O)N[C@@H](CCC(=O)O)C(=O)O)s3)ccc2n1 | – | 7 |
| 0.8 | 4.3 | – | Cc1nc(O)c2cc(NC(C)c3ccc(C(=O)N[C@@H](CCC(=O)O)C(=O)O)cc3)ccc2n1 (stereo not given in full) | 93 | – |
| 0.35 | 1.07 | – | Cc1nc(O)c2cc(N(C)C(C)c3ccc(C(=O)N[C@@H](CCC(=O)O)C(=O)O)cc3)ccc2n1 (stereo not given in full) | – | – |
| 3 | 24.8 | – | Cc1nc2ccc(CNc3ccc(C(=O)N[C@@H](CCC(=O)O)C(=O)O)s3)cc2c(=O)[nH]1 | – | – |
| 0.026 | 6.98 | – | Cc1nc(O)c2cc(NCc3ccc(C(=O)N[C@@H](CCC(=O)O)C(=O)O)s3)ccc2n1 | 88 | – |
| 0.007 | – | 0.96 | Cc1nc(=O)c2cc(CN(C)c3ccc(C(=O)N[C@@H](CCC(=O)O)C(=O)O)s3)ccc2[nH]1 [RALTITREXED] | – | 137 |
| 1.3 | 0.72 | – | Cc1nc(O)c2cc(CN(C)c3ccc4c(c3)CN([C@@H](CCC(=O)O)C(=O)O)C4=O)ccc2n1 | 90 | – |
| 0.06 | 16.7 | – | Cc1nc(O)c2cc(NCc3ccc(C(=O)N[C@@H](CCC(=O)O)C(=O)O)cn3)ccc2n1 | – | – |
| 6.2 | 13.3 | – | Cc1nc(O)c2cc(N(CCO)Cc3ccc(C(=O)N[C@@H](CCC(=O)O)C(=O)O)s3)ccc2n1 | 91 | – |

| SMILES | IC50 (L1210 [1]) [µM] | IC50 (Thymidylate synthase) [µM] | IC50 (L1210 [3]) [µM] | Control (L1210 [2]) [%] | Ratio [4] |
| --- | --- | --- | --- | --- | --- |
| C#CCN(Cc1ccc2nc(C)nc(O)c2c1)c1ccc2c(c1)CN([C@@H](CCC(=O)O)C(=O)O)C2=O | 0.17 | 0.15 | – | 96 | – |
